Assay results reported in patent US20250368633A1, “AZEPINE FUSED RING COMPOUND AS RIPK1 INHIBITOR AND USE THEREOF” (ARTIVILA BIOPHARMA, priority 2022, published 2025).

How the values were obtained:
U937 cells [1] = experiment: Inhibition rate of compound (1 μM) on necroptosis of U937 cells (TSZ-induced, CellTiter-Glo); type: cell-based; details: TSZ (hTNF-α, SM-164, Z-VAD-FMK) 20 hours
Method in brief: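 Percent inhibition comes from ATP luminescence (CellTiter-Glo), referenced to wells without TSZ and wells with TSZ alone. The compound was added to U937 cells 15 min ahead of a TNF-α/SM-164/Z-VAD-FMK mix, followed by 20 h culture at 37° C, 5% CO2.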

U937 cells [2] = experiment: EC50 of necroptosis inhibition in U937 cells (TSZ-induced, CellTiter-Glo); type: cell-based; details: Homo sapiens, U-937; TSZ (hTNF-α, SM-164, Z-VAD-FMK) 20 hours; 10 concentration points; read-out: EC50 intervals of necroptosis inhibition in U937 cells
Method in brief: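 Luminescent ATP readout (CellTiter-Glo) after 20 h gave viability of TSZ-challenged U937 cells; compounds were added 15 min ahead of TNF-α/SM-164/Z-VAD-FMK. EC50 derived by variable-slope nonlinear regression of inhibition relative to no-TSZ and TSZ-alone controls.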

RIPK1 kinase = molecular target: T1, RIPK1 kinase (Homo sapiens, UniProt Q13546); experiment: In vitro RIPK1 kinase activity assay (ADP-Glo), inhibition by compounds at 1 μM; type: biochemical; details: compound 1 μM; ATP 10 μM; MBP substrate 100 μg/mL; read-out: RIPK1 kinase activity inhibition rate range
T1 construct: purchased Promega VA7593
T1 sequence (Q13546 1-671): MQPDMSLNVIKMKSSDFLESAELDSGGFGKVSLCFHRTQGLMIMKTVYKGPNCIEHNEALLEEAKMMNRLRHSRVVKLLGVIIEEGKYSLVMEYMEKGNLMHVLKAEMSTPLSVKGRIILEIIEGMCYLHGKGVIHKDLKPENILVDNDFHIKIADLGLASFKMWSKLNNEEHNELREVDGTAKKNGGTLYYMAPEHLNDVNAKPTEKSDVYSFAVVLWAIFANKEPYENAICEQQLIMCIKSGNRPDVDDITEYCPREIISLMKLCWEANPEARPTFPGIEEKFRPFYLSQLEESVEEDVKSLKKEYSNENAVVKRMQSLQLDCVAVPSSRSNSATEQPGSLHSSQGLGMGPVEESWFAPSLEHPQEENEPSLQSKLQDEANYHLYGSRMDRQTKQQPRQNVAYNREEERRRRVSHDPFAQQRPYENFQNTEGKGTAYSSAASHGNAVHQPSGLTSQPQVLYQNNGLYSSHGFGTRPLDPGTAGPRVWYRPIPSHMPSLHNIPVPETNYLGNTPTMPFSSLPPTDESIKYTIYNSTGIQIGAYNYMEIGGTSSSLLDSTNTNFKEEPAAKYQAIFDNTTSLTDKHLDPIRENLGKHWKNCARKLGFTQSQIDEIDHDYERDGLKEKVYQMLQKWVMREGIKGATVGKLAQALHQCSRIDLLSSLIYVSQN
Method in brief: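 Read by ADP-Glo chemiluminescence as percent inhibition: RIPK1 kinase, 15-min room-temperature compound preincubation, then 1-h reaction with MBP (100 μg/mL final) and ATP (10 μM final). Enzyme level was set by titration.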

| inhibition at 1 µM (RIPK1 kinase) [%] | SMILES | Inhibition rate range of compounds (1 μM) on U937 cell necroptosis (U937 cells [1]) | EC50 (U937 cells [2]) [µM] |
| --- | --- | --- | --- |
| 50 to 74 | C#Cc1ccc2c(c1)N(C)C(=O)[C@@H](NC(=O)C(=O)NCCc1ccccc1)CO2 [Example 20, (S)—N^1-(7-ethynyl-5-methyl-4-oxo-2,3,4,5-tetrahydrobenzo[b][1,4]oxazepin-3-yl)-N^2-phenethyloxalamide] | A (A: ≥90%) | < 0.1 |
| 50 to 74 | CN1C(=O)[C@@H](NC(=O)C(=O)NCCc2cccc(F)c2)COc2ccc(C#CC3CCCNC3)cc21 (stereo partly drawn) [Example 116, N^1-(3-fluorophenethyl)-N^2-((3S)-5-methyl-4-oxo-7-(piperidin-3-ylethynyl)-2,3,4,5-tetrahydrobenzo[b][1,4]oxazepin-3-yl)oxalamide] | A (A: ≥90%) | 0.1 to 0.5 |
| ≥ 75 | Cc1ncsc1-c1ccc(CNC(=O)[C@@H]2C[C@@H](O)CN2C(=O)[C@@H](NC(=O)CCOCCOCCOCCN2CCN(CC#Cc3ccc4c(c3)N(C)C(=O)[C@@H](NC(=O)C(=O)N[C@H](C)c3ccccc3)CO4)CC2)C(C)(C)C)cc1 [Example 163, N^1-((S)-7-(3-(4-((S)-14-((2S,4R)-4-hydroxy-2-((4-(4-methylthiazol-5-yl)benzyl)carbamoyl)pyrrolidine-1-carbonyl)-15,15-dimethyl-12-oxo-3,6,9-trioxa-13-azahexadecyl)piperazin-1-yl)prop-1-yn-1-yl)-5-methyl-4-oxo-2,3,4,5-tetrahydrobenzo[b][1,4]oxazepin-3-yl)-N^2-((R)-1-phenylethyl)oxalamide] | A (A: ≥90%) | < 0.1 |
| 25 to 49 | CN1C(=O)[C@@H](NC(=O)C(=O)NCCc2ccccc2)COc2ccc(C#CC3CCN(CCOCCOCC(=O)OC(C)(C)C)CC3)cc21 [Example 53, tert-butyl (S)-2-(2-(2-(4-((5-methyl-4-oxo-3-(2-oxo-2-(phenethylamino)acetamido)-2,3,4,5-tetrahydrobenzo[b][1,4]oxazepin-7-yl)ethynyl)piperidin-1-yl)ethoxy)ethoxy)acetate] | A (A: ≥90%) | < 0.1 |
| ≥ 75 | CN1C(=O)[C@@H](NC(=O)C(=O)NCc2ccccc2)COc2ccc(C#CCN3CCC(O)CC3)cc21 [Example 105, (S)—N^1-benzyl-N^2-(7-(3-(4-hydroxypiperidin-1-yl)prop-1-yn-1-yl)-5-methyl-4-oxo-2,3,4,5-tetrahydrobenzo[b][1,4]oxazepin-3-yl)oxalamide] | A (A: ≥90%) | < 0.1 |
| 25 to 49 | CN1C(=O)[C@@H](NC(=O)C(=O)NCc2cc(F)cc(F)c2)COc2ccccc21 [Example 102, (S)—N^1-(3,5-difluorobenzyl)-N^2-(5-methyl-4-oxo-2,3,4,5-tetrahydrobenzo[b][1,4]oxazepin-3-yl)oxalamide] | B (B: 50-89%) | 0.5 to 2 |
| ≥ 75 | C[C@@H](NC(=O)C(=O)N[C@H]1COc2ccc(C#CC3COC3)cc2N(C)C1=O)c1ccccc1 [Example 131, (S)—N^1-(5-methyl-7-(oxetan-3-ylethynyl)-4-oxo-2,3,4,5-tetrahydrobenzo[b][1,4]oxazepin-3-yl)-N^2-((R)-1-phenylethyl)oxalamide] | A (A: ≥90%) | < 0.1 |
| 50 to 74 | CN1C(=O)[C@@H](NC(=O)C(=O)NCCc2ccccc2)COc2ccc(O)cc21 [Example 6, (S)—N^1-(7-hydroxy-5-methyl-4-oxo-2,3,4,5-tetrahydrobenzo[b][1,4]oxazepin-3-yl)-N^2-phenethyloxalamide] | A (A: ≥90%) | 0.1 to 0.5 |
| ≥ 75 | C#CCOc1ccc2c(c1)N(C)C(=O)[C@@H](NC(=O)C(=O)NCCc1ccccc1)CO2 [Example 10, (S)—N^1-(5-methyl-4-oxo-7-(prop-2-yn-1-yloxy)-2,3,4,5-tetrahydrobenzo[b][1,4]oxazepin-3-yl)-N^2-phenethyloxalamide] | A (A: ≥90%) | 0.1 to 0.5 |
| 25 to 49 | CN(C)c1ccc(C#Cc2ccc3c(c2)N(C)C(=O)[C@@H](NC(=O)C(=O)NCCc2ccccc2)CO3)cc1 [Example 75, (S)—N^1-(7-((4-(dimethylamino)phenyl)ethynyl)-5-methyl-4-oxo-2,3,4,5-tetrahydrobenzo[b][1,4]oxazepin-3-yl)-N^2-phenethyloxalamide] | A (A: ≥90%) | < 0.1 |
| 50 to 74 | C[C@H](Cc1ccccc1)NC(=O)C(=O)N[C@H]1COc2ccc(C#CCCO)cc2N(C)C1=O [Example 153, N^1-((S)-7-(4-hydroxybut-1-yn-1-yl)-5-methyl-4-oxo-2,3,4,5-tetrahydrobenzo[b][1,4]oxazepin-3-yl)-N^2-((R)-1-phenylpropan-2-yl)oxalamide] | A (A: ≥90%) | 0.1 to 0.5 |
| ≥ 75 | CN1C(=O)[C@@H](NC(=O)C(=O)NCCc2ccccc2)COc2ccc(C#Cc3ccccn3)cc21 [Example 14, (S)—N^1-(5-methyl-4-oxo-7-(pyridin-2-ylethynyl)-2,3,4,5-tetrahydrobenzo[b][1,4]oxazepin-3-yl)-N^2-phenethyloxalamide] | A (A: ≥90%) | < 0.1 |
| ≥ 75 | CC(=O)N1CC(O)(C#Cc2ccc3c(c2)N(C)C(=O)[C@@H](NC(=O)C(=O)NCCc2ccccc2)CO3)C1 [Example 93, (S)—N^1-(7-((1-acetyl-3-hydroxyazetidin-3-yl)ethynyl)-5-methyl-4-oxo-2,3,4,5-tetrahydrobenzo[b][1,4]oxazepin-3-yl)-N^2-phenethyloxalamide] | A (A: ≥90%) | 0.1 to 0.5 |
| 50 to 74 | C[C@@H](NC(=O)C(=O)N[C@H]1COc2ccc(C#CC[N+]3([O-])CCOCC3)cc2N(C)C1=O)c1ccccc1 [Example 161, 4-(3-((S)-5-methyl-4-oxo-3-(2-oxo-2-(((R)-1-phenylethyl)amino)acetamido)-2,3,4,5-tetrahydrobenzo[b][1,4]oxazepin-7-yl)prop-2-yn-1-yl) morpholine 4-oxide] | A (A: ≥90%) | < 0.1 |
| ≥ 75 | CN1C(=O)[C@@H](NC(=O)C(=O)NCCc2ccccc2)COc2ccccc21 [Example 57, (S)—N^1-(5-methyl-4-oxo-2,3,4,5-tetrahydrobenzo[b][1,4]oxazepin-3-yl)-N^2-phenethyloxalamide] | A (A: ≥90%) | 0.1 to 0.5 |
| 25 to 49 | CN1C(=O)[C@@H](NC(=O)C(=O)NCc2ccccc2)COc2ccccc21 [Example 58, (S)—N^1-benzyl-N^2-(5-methyl-4-oxo-2,3,4,5-tetrahydrobenzo[b][1,4]oxazepin-3-yl)oxalamide] | B (B: 50-89%) | 0.5 to 2 |
| 50 to 74 | CN1C(=O)[C@@H](NC(=O)C(=O)NCCc2ccccc2)COc2ccc(Br)cc21 [Example 1, (S)—N^1-(7-bromo-5-methyl-4-oxo-2,3,4,5-tetrahydrobenzo[b][1,4]oxazepin-3-yl)-N^2-phenethyloxalamide] | A (A: ≥90%) | 0.1 to 0.5 |
| 25 to 49 | CN1C(=O)[C@@H](NC(=O)C(=O)NCCc2ccccc2)COc2ccc(C#CCN)cc21.Cl [Example 87, (S)—N^1-(7-(3-aminoprop-1-yn-1-yl)-5-methyl-4-oxo-2,3,4,5-tetrahydrobenzo[b][1,4]oxazepin-3-yl)-N^2-phenethyloxalamide hydrochloride] | B (B: 50-89%) | 0.5 to 2 |
